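1) Cells in 96-well plates. 2) Compound, 48 h, 5 concentrations. 3) Linear interpolation between surrounding doses. 4) Unreached endpoint = highest concentration. GI50 = concentration required for 50% inhibition of growth.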 The source made the active and inactive calls. No stated cut-off is given here; in the data, active = GI50 up to about 1.1 µM and inactive = higher.
Key:
Test in all cases: inhibition of tumour cell growth, NCI panel, 48 h
HL-60 = system: HL-60
OVCAR-8 = system: OVCAR-8
IGROV-1 = system: IGROV-1
HCT-116 = system: HCT-116
SK-MEL-28 = system: SK-MEL-28
COLO 205 = system: COLO 205
MDA-MB-231 = system: MDA-MB-231
OVCAR-5 = system: OVCAR-5
RXF 393 = system: RXF 393
UACC-257 = system: UACC-257
SR = system: SR
PC-3 = system: PC-3
HOP-92 = system: HOP-92
HT-29 = system: HT-29
NCI/ADR-RES = system: NCI/ADR-RES
SNB-75 = system: SNB-75
MDA-MB-435 = system: MDA-MB-435
NCI-H226 = system: NCI-H226
786-0 = system: 786-0
SF-295 = system: SF-295

SMILES	GI50 (HL-60)	GI50 (OVCAR-8)	GI50 (IGROV-1)	GI50 (HCT-116)	GI50 (SK-MEL-28)	GI50 (COLO 205)	GI50 (MDA-MB-231)	GI50 (OVCAR-5)	GI50 (RXF 393)	GI50 (UACC-257)	GI50 (SR)	GI50 (PC-3)	GI50 (HOP-92)	GI50 (HT-29)	GI50 (NCI/ADR-RES)	GI50 (SNB-75)	GI50 (MDA-MB-435)	GI50 (NCI-H226)	GI50 (786-0)	GI50 (SF-295)
CCN(CC)C(=S)N/N=C(/c1ccccc1)c1ccccn1	0.264 µM (active)	0.0362 µM (active)	0.195 µM (active)	0.0454 µM (active)	0.767 µM (active)	0.0275 µM (active)	0.0265 µM (active)	0.238 µM (active)	0.277 µM (active)	0.107 µM (active)	0.106 µM (active)	0.212 µM (active)	1.65 µM (inactive)	< 0.0246 µM (active)	0.27 µM (active)	0.875 µM (active)	0.705 µM (active)	1.66 µM (inactive)	0.145 µM (active)	0.342 µM (active)
COc1cc(NCc2ccc3nc(-c4ccccc4)c(N)nc3c2)cc(OC)c1OC	25.6 µM (inactive)	27.7 µM (inactive)	43.6 µM (inactive)	18.1 µM (inactive)	27.4 µM (inactive)	18.8 µM (inactive)	36 µM (inactive)	> 100 µM (inactive)	16 µM (inactive)	22.7 µM (inactive)	37.8 µM (inactive)	28.2 µM (inactive)	12.5 µM (inactive)	32.9 µM (inactive)	22.2 µM (inactive)	19.1 µM (inactive)	22.3 µM (inactive)	27.5 µM (inactive)	35.6 µM (inactive)	35.6 µM (inactive)
C[N+](C)(C)CC1CCCc2ccccc2C1=O (centres undefined)	1.89 µM (inactive)	8.28 µM (inactive)	16.6 µM (inactive)	1.87 µM (inactive)	18.2 µM (inactive)	22 µM (inactive)	16.3 µM (inactive)	13.3 µM (inactive)	6.28 µM (inactive)	13.7 µM (inactive)	1.64 µM (inactive)	16.8 µM (inactive)	13.2 µM (inactive)	–	7.06 µM (inactive)	19.7 µM (inactive)	5.89 µM (inactive)	21.9 µM (inactive)	2.44 µM (inactive)	> 40.5 µM (inactive)
CCN(CC)Cc1cc(/N=N\c2c(O)ccc3c(/N=N\c4ccc(O)c(CN(CC)CC)c4)c(O)ccc23)ccc1O	1.8 µM (inactive)	2.12 µM (inactive)	2.99 µM (inactive)	1.94 µM (inactive)	5.96 µM (inactive)	1.61 µM (inactive)	2.05 µM (inactive)	6.49 µM (inactive)	2.94 µM (inactive)	5.75 µM (inactive)	0.993 µM (active)	5.11 µM (inactive)	4.58 µM (inactive)	2.57 µM (inactive)	4.57 µM (inactive)	6.28 µM (inactive)	3.65 µM (inactive)	4.54 µM (inactive)	1.87 µM (inactive)	5.01 µM (inactive)
O=C(CN1CCN(C(=O)OCc2ccccc2)CCN(CC(=O)N2CCCCC2)CCN(C(=O)OCc2ccccc2)CC1)N1CCCCC1	10.6 µM (inactive)	8.61 µM (inactive)	10.3 µM (inactive)	4.88 µM (inactive)	14.7 µM (inactive)	11.9 µM (inactive)	14.2 µM (inactive)	19.6 µM (inactive)	11.9 µM (inactive)	3.49 µM (inactive)	3.3 µM (inactive)	12.6 µM (inactive)	12.9 µM (inactive)	7.46 µM (inactive)	10.9 µM (inactive)	4.22 µM (inactive)	16.1 µM (inactive)	5.82 µM (inactive)	13.8 µM (inactive)	18.7 µM (inactive)
C/C=C/[C@@H]1O[C@H](CC#C[Si](C)(C)C)[C@@]2(C=O)C(C)=CC[C@H](C(C)C)[C@@H]12	3.81 µM (inactive)	23.4 µM (inactive)	2.82 µM (inactive)	18.2 µM (inactive)	20.3 µM (inactive)	21.5 µM (inactive)	17.3 µM (inactive)	21 µM (inactive)	18 µM (inactive)	12.9 µM (inactive)	2.44 µM (inactive)	15.4 µM (inactive)	17.4 µM (inactive)	19.5 µM (inactive)	23.3 µM (inactive)	21.6 µM (inactive)	20 µM (inactive)	20.3 µM (inactive)	13.7 µM (inactive)	21.9 µM (inactive)
CN(CCO)CC(=O)CC(O)(C(F)(F)F)C(F)(F)F	26.4 µM (inactive)	41.3 µM (inactive)	43.2 µM (inactive)	30.8 µM (inactive)	42.6 µM (inactive)	35.3 µM (inactive)	29.7 µM (inactive)	52.5 µM (inactive)	19.5 µM (inactive)	37.6 µM (inactive)	40.8 µM (inactive)	26.2 µM (inactive)	22.5 µM (inactive)	30.7 µM (inactive)	41 µM (inactive)	14.5 µM (inactive)	36 µM (inactive)	36.3 µM (inactive)	32.6 µM (inactive)	30 µM (inactive)
O=S(=O)(O)c1cc(/N=N/c2c(O)ccc3ccccc23)c2c(S(=O)(=O)O)cccc2c1	> 100 µM (inactive)	> 100 µM (inactive)	> 100 µM (inactive)	> 100 µM (inactive)	> 100 µM (inactive)	> 100 µM (inactive)	> 100 µM (inactive)	> 100 µM (inactive)	> 100 µM (inactive)	> 100 µM (inactive)	> 100 µM (inactive)	> 100 µM (inactive)	> 100 µM (inactive)	> 100 µM (inactive)	> 100 µM (inactive)	< 0.01 µM (active)	> 100 µM (inactive)	> 100 µM (inactive)	> 100 µM (inactive)	> 100 µM (inactive)
COC(=O)CC1C2CC3C(C2=O)C13 (centres undefined)	33.6 µM (inactive)	> 100 µM (inactive)	> 100 µM (inactive)	> 100 µM (inactive)	> 100 µM (inactive)	> 100 µM (inactive)	> 100 µM (inactive)	> 100 µM (inactive)	> 100 µM (inactive)	> 100 µM (inactive)	> 100 µM (inactive)	> 100 µM (inactive)	> 100 µM (inactive)	> 100 µM (inactive)	> 100 µM (inactive)	58.1 µM (inactive)	> 100 µM (inactive)	> 100 µM (inactive)	> 100 µM (inactive)	> 100 µM (inactive)
COC(=O)c1c2c(cc3c1CC1(Cc4ccccc4C1)C3)CCC2	17.3 µM (inactive)	35.2 µM (inactive)	22.5 µM (inactive)	21.7 µM (inactive)	24.2 µM (inactive)	16.6 µM (inactive)	14.8 µM (inactive)	25.2 µM (inactive)	16.9 µM (inactive)	17.6 µM (inactive)	16.5 µM (inactive)	13.8 µM (inactive)	36.9 µM (inactive)	13.8 µM (inactive)	22.2 µM (inactive)	26.2 µM (inactive)	8.91 µM (inactive)	31.7 µM (inactive)	27.9 µM (inactive)	24.5 µM (inactive)
